Reference: US5700804A, “Pharmaceutical compounds” (Xenova Limited, priority 1992, dated 1997)

Molecular target: PAI-1 (Homo sapiens, UniProt P05121)
Assay: PAI chromogenic substrate assay (first S2251 assay, tPA/plasminogen system)
Type: biochemical
Experimental: In this assay, a compound is incubated with PAI-1 prior to addition to the tPA assay system. Inhibition of PAI-1 results in the production of plasmin from plasminogen. In turn, plasmin cleaves the chromogenic substrate S2251 (Kabi Vitrum) producing pNA (p-nitroaniline) which is detected spectrophotometrically at 405 nm (K. Nilsson et al, Fibrinolysis (1987) 1, 163-168).
Compounds of formula (A) were tested in a PAI chromogenic substrate assay. In the first assay (K. Nilsson, Fibrinolysis (1987) 1, 163-168) each compound was incubated with PAI-1 prior to addition to the tPA assay system. […] In turn, the plasmin cleaved the chromogenic substrate S2251 (Kabi-Vitrum) producing pNA (p-nitroaniline) which was detected spectrophotometrically at 405 nm.

Chain of PAI-1 (P05121 24-402): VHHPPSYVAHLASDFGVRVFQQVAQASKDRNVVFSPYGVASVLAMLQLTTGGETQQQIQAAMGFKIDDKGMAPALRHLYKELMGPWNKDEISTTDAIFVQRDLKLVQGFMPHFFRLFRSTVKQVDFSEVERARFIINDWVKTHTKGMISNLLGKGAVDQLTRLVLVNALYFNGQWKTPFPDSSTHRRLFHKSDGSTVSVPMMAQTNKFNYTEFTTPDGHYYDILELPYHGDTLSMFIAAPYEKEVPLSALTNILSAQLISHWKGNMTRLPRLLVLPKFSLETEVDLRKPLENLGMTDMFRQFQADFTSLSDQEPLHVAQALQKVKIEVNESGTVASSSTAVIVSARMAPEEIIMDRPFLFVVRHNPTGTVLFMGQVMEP

| Compound | Inhibition of PAI-1 in the first S2251 chromogenic substrate assay (Concentration 6 μm) [%] | Inhibition of PAI-1 in the first S2251 chromogenic substrate assay (Concentration 12 μm) [%] | Inhibition of PAI-1 in the first S2251 chromogenic substrate assay (Concentration 25 μm) [%] | Inhibition of PAI-1 in the first S2251 chromogenic substrate assay (Concentration 50 μm) [%] | Inhibition of PAI-1 in the first S2251 chromogenic substrate assay (Concentration 100 μm) [%] | Inhibition of PAI-1 in the first S2251 chromogenic substrate assay (Concentration 6.25 μm) [%] | Inhibition of PAI-1 in the first S2251 chromogenic substrate assay (Concentration 12.5 μm) [%] | Inhibition of PAI-1 in the first S2251 chromogenic substrate assay (Concentration 7.5 μm) [%] | Inhibition of PAI-1 in the first S2251 chromogenic substrate assay (Concentration 15 μm) [%] | Inhibition of PAI-1 in the first S2251 chromogenic substrate assay (Concentration 30 μm) [%] | Inhibition of PAI-1 in the first S2251 chromogenic substrate assay (Concentration 60 μm) [%] | Inhibition of PAI-1 in the first S2251 chromogenic substrate assay (Concentration 3.75 μm) [%] |
| --- | --- | --- | --- | --- | --- | --- | --- | --- | --- | --- | --- | --- |
| O=c1[nH]c(=Cc2ccccc2)c(=O)[nH]c1=Cc1ccccc1 [Compound 22, 3,6-Dibenzylidene-2,5-piperazinedione] |  |  | 1 | 2 | 61 | 0 | 0 |  |  |  |  |  |
| CC(=O)Oc1ccc(/C=c2\[nH]c(=O)/c(=C/c3ccccc3)[nH]c2=O)cc1 [Compound 23, (3Z,6Z)-3-(4-Acetoxybenzylidene)-6-benzylidene-2,5-piperazinedione] |  |  |  |  |  |  |  | 0 | 0 | 17 | 65 |  |
| O=c1[nH]/c(=C\c2cccc([N+](=O)[O-])c2)c(=O)[nH]/c1=C\c1ccccc1 [Compound 24, (3Z,6Z)-6-Benzylidene-3-(3-nitrobenzylidene)-2,5-piperazinedione] |  |  |  |  |  |  |  | 0 | 0 | 29 | 56 | 0 |
| COc1ccc(/C=c2\[nH]c(=O)/c(=C/c3ccc4ccccc4c3)[nH]c2=O)cc1 [Compound 27, (3Z,6Z)-3-(4-Methoxybenzylidene)-6-(2-naphthylmethylene)-2,5-piperazinedione] |  |  | 8 | 35 | 70 |  | 9 |  |  |  |  |  |
| CC(=O)Oc1cccc(/C=c2\[nH]c(=O)/c(=C/c3ccccc3)[nH]c2=O)c1 [Compound 31, (3Z,6Z)-3-(3-Acetoxybenzylidene)-6-benzylidene-2,5-piperazinedione] |  |  | 2 | 12 | 58 | 0 | 1 |  |  |  |  |  |
| CC(=O)Oc1ccccc1/C=c1\[nH]c(=O)/c(=C/c2ccccc2)[nH]c1=O [Compound 32, (3Z,6Z)-3-(2-Acetoxybenzylidene)-6-benzylidene-2,5-piperazinedione] |  |  | 3 | 36 | 87 | 0 | 1 |  |  |  |  |  |
| O=c1[nH]/c(=C\c2cccc(O)c2)c(=O)[nH]/c1=C\c1ccccc1 [Compound 33, (3Z,6Z)-6-Benzylidene-3-(3-hydroxybenzylidene)-2,5-piperazinedione] |  |  | 1 | 3 | 56 | 0 | 1 |  |  |  |  |  |
| O=c1[nH]/c(=C\c2cccc([N+](=O)[O-])c2)c(=O)[nH]/c1=C\c1cccc([N+](=O)[O-])c1 [Compound 35, (3Z,6Z)-3,6-Di-(3-Nitrobenzylidene)-2,5-piperazinedione] |  |  | 2 | 28 | 52 |  |  |  |  |  |  |  |
| COc1ccc(/C=c2\[nH]c(=O)/c(=C/c3ccc(OC(C)=O)cc3)[nH]c2=O)cc1 [Compound 37, (3Z,6Z)-3-(4-Acetoxybenzylidene)-6-(4-methoxybenzylidene)-2,5-piperazinedione] |  |  | 2 | 19 | 69 |  |  |  |  |  |  |  |
| Nc1ccccc1/C=c1\[nH]c(=O)/c(=C/c2ccccc2)[nH]c1=O [Compound 39, (3Z,6Z)-3-(2-Aminobenzylidene)-6-benzylidene-2,5-piperazinedione] |  |  | 1 | 20 | 67 | 0 | 1 |  |  |  |  |  |

Now from value to molecule:

| Inhibition of PAI-1 in the first S2251 chromogenic substrate assay (Concentration 6 μm) [%] | Inhibition of PAI-1 in the first S2251 chromogenic substrate assay (Concentration 12 μm) [%] | Inhibition of PAI-1 in the first S2251 chromogenic substrate assay (Concentration 25 μm) [%] | Inhibition of PAI-1 in the first S2251 chromogenic substrate assay (Concentration 50 μm) [%] | Inhibition of PAI-1 in the first S2251 chromogenic substrate assay (Concentration 100 μm) [%] | Inhibition of PAI-1 in the first S2251 chromogenic substrate assay (Concentration 6.25 μm) [%] | Inhibition of PAI-1 in the first S2251 chromogenic substrate assay (Concentration 12.5 μm) [%] | Inhibition of PAI-1 in the first S2251 chromogenic substrate assay (Concentration 7.5 μm) [%] | Inhibition of PAI-1 in the first S2251 chromogenic substrate assay (Concentration 15 μm) [%] | Inhibition of PAI-1 in the first S2251 chromogenic substrate assay (Concentration 30 μm) [%] | Inhibition of PAI-1 in the first S2251 chromogenic substrate assay (Concentration 60 μm) [%] | Inhibition of PAI-1 in the first S2251 chromogenic substrate assay (Concentration 3.75 μm) [%] | Compound |
| --- | --- | --- | --- | --- | --- | --- | --- | --- | --- | --- | --- | --- |
| 14 | 40 | 53 | 74 | 86 |  |  |  |  |  |  |  | COc1ccc(/C=c2\[nH]c(=O)/c(=C/c3ccccc3)[nH]c2=O)cc1 [Compound 3, (3Z,6Z,)-6-benylidene-3-(4-methoxybenzylidene)-2,5-piperazinedione] |
|  |  | 2 | 35 | 79 | 0 | 0 |  |  |  |  |  | O=c1[nH]/c(=C\c2c(Cl)cccc2Cl)c(=O)[nH]/c1=C\c1ccccc1 [Compound 21, (3Z,6Z)-6-Benzylidene-3-(2,6-dichlorobenzylidene)-2,5-piperazinedione] |
|  |  | 1 | 25 | 52 | 0 | 0 |  |  |  |  |  | CCOc1ccc(/C=c2\[nH]c(=O)/c(=C/c3ccccc3)[nH]c2=O)cc1 [Compound 25, (3Z,6Z)-6-Benzylidene-3-(4-ethoxybenzylidene)-2,5-piperazinedione] |
|  |  |  |  |  |  |  | 42 | 73 | 71 | 57 |  | COc1ccc(/C=c2\[nH]c(=O)/c(=C/c3ccc(NC(C)=O)cc3)[nH]c2=O)cc1 [Compound 26, (3Z,6Z)-3-(4-Acetamidobenzylidene)-6-(4-methoxybenzylidene)-2,5-piperazinedione] |
|  |  | 45 | 74 | 71 | 0 | 1 |  |  |  |  |  | COc1ccc(/C=c2\[nH]c(=O)/c(=C/c3ccccc3[N+](=O)[O-])[nH]c2=O)cc1 [Compound 28, (3Z,6Z)-6-(4-Methoxybenzylidene)-3-(2-nitrobenzylidene)-2,5-piperazinedione] |
|  |  | 34 | 76 | 80 | 0 | 1 |  |  |  |  |  | COc1ccc(/C=c2\[nH]c(=O)/c(=C/c3c(Cl)cccc3Cl)[nH]c2=O)cc1 [Compound 29, (3Z,6Z)-3-(2,6-Dichlorobenzylidene)-6-(4-methoxybenzylidene)-2,5-piperazinedione] |
|  |  | 5 | 23 | 66 |  | 2 |  |  |  |  |  | Nc1ccc(/C=c2\[nH]c(=O)/c(=C/c3ccccc3)[nH]c2=O)cc1 [Compound 30, (3Z,6Z)-3-(4-Aminobenzylidene)-6-benzylidene-2,5-piperazinedione] |
|  |  |  |  |  |  |  | 24 | 76 | 77 | 72 |  | CC(=O)Nc1ccc(/C=c2\[nH]c(=O)/c(=C/c3ccccc3)[nH]c2=O)cc1 [Compound 34, (3Z,6Z)-3-(4-Acetamidobenzylidene)-6-benzylidene-2,5-piperazinedione] |
|  |  | 1 | 6 | 71 |  |  |  |  |  |  |  | COc1ccc(/C=c2\[nH]c(=O)/c(=C/c3ccc(O)cc3)[nH]c2=O)cc1 [Compound 36, (3Z,6Z)-3-(4-Hydroxybenzylidene)-6-(4-methoxybenzylidene)-2,5-piperazinedione] |
|  |  | 1 | 3 | 64 | 1 | 1 |  |  |  |  |  | CC(=O)Nc1ccccc1/C=c1\[nH]c(=O)/c(=C/c2ccccc2)[nH]c1=O [Compound 38, (3Z,6Z)-3-(2-Acetamidobenzylidene)-6-benzylidene-2,5-piperazinedione] |
|  |  | 23 | 61 | 61 | 1 | 4 |  |  |  |  |  | CC(=O)Nc1ccc(/C=c2\[nH]c(=O)/c(=C/c3c(Cl)cccc3Cl)[nH]c2=O)cc1 [Compound 40, (3Z,6Z)-3-(4-Acetamidobenzylidene)-6-(2,6-dichlorobenzylidene)-2,5-piperazinedione] |
|  |  | 32 | 45 | 51 | 3 | 8 |  |  |  |  |  | COc1ccc(/C=c2\[nH]c(=O)/c(=C/c3ccc(N(C)C(C)=O)cc3)[nH]c2=O)cc1 [Compound 41, (3Z,6Z)-3-(4-Methoxybenzylidene)-6-(4-N-methylacetamidobenzylidene)-2,5-piperazinedione] |
